# Test results as given in article PMC10683025, “Discovery of a Hydroxylamine-Based Brain-Penetrant EGFR Inhibitor for Metastatic Non-Small-Cell Lung Cancer” (Journal of Medicinal Chemistry, 2023).
# Like-named read-outs stand apart in the source and are kept apart here.
# What was measured:
# [1] = target: T1, EGFR del E746_A750 (Homo sapiens, UniProt P00533, DEL746-750); assay: KINOMEScan KdELECT Kd determination; type: binding
# T1 construct: purchased Eurofins DiscoverX (contract assay)
# Method: (§3) In vitro kinase activity (inhibitor binding constants (Kd) and biochemical inhibition (IC50’s)) were assessed by Eurofins DiscoverX (Kd determinations) and Eurofins Cerep (biochemical IC50 determinations).
# [2] = tested on: MDCKII-MDR1 cells; assay: MDCKII-MDR1 permeability; type: in vitro ADME, canine; settings: MDCKII-MDR1
# Method: (§4) A 96-well HTS Transwell plate (Corning) was used for Caco-2 and MDCKII-MDR1 cell seeding. […] Plates were incubated at 37 °C for 2 h, and samples (50 μL) were taken at the beginning and end of the incubation in both the donor and acceptor wells with the assay run in duplicate (n = 2). Samples were analyzed by LC-MS/MS.
# (§5) The efflux ratio was determined by using the following equation: [drawing 4] where Papp (B–A) indicates the apparent permeability in the basolateral to apical direction and Papp (A–B) indicates the apparent permeability in the apical to basolateral direction.
# [3] = MDCKII-MDR1 permeability; type: in vitro ADME, canine; settings: dog, MDCK-MDR1, MDCKII-MDR1
# Method: as §4, §5
# [4] = tested on: MDR1; assay: MDCKII-MDR1 permeability; type: in vitro ADME, canine; settings: dog, MDCK-MDR1
# Method: as §4, §5
# [5] = target: T2, EGFRL858R (Homo sapiens, UniProt P00533, L858R); assay: KinaseProfiler enzymatic radiometric assay; type: biochemical; set-up: purchased Eurofins Cerep (KinaseProfiler, contract assay); settings: ATP 10 μM, read-out: EGFR IC50
# Method: as §3
# [6] = Plasma protein binding by equilibrium dialysis; type: in vitro ADME
# Method: (§1) Plasma protein binding and brain tissue binding were determined by Pharmaron, Inc. using the equilibrium dialysis method. […] Following incubation, the samples were analyzed by LC-MS/MS and the concentrations of the compounds were determined in the buffer and plasma solution chambers.
# [7] = Plasma stability; type: in vitro ADME, Sprague-Dawley rat; settings: rat plasma; for t1/2: ∞ = no degradation
# Method: (§2) Assessment of compounds to determine stability in incubations containing plasma of human (Pharmaron) and Sprague-Dawley rat (IPHASE) was performed by Pharmaron, Inc. using the compound […] approach. Compounds were assessed in duplicate (n = 2) and incubated in plasma at 5 μM and samples (50 μL) were taken at 0, 15, 30, 60, and 120 min time points for analysis by LC-MS/MS. Peak area ratios were determined from the extracted ion chromatogram and the percent compound remaining at each time point was calculated by the following equation: [drawing 2] where peak area ratiot min is the peak area ratio of control and test compound at t min and peak area ratio0 min is the peak area ratio of control and test compound at zero time point.
# [8] = target: T3, EGFRwt (Homo sapiens, UniProt P00533); assay: KinaseProfiler enzymatic radiometric assay; type: biochemical; settings: wt, ATP 10 μM; read-out: EGFR IC50
# T3 construct: purchased Eurofins DiscoverX (contract assay)
# Method: as §3
# [9] = tested on: HCC827 (EGFR mutation = exon19del); assay: CellTiter-Glo cell viability assay; type: cell-based, human; settings: Homo sapiens, HCC827; 72 h, unadjusted for FBS
# Method: (§6) The NCI-H3255 cell line was obtained from CoBioer. […] NCI-H3255 cells were cultured in BEGM (Lonza) with 10% FBS. […] All cells were cultured in a humidified incubator with 5% CO2 at 37 °C.
# (§7) Viability assays using A431, HCC827, NCI-H1975, NCI-H3255, Ba/F3 EGFR-del E746_A750/C797S, Ba/F3 EGFR-L858R/C797S, AU565, SK-BR-3, and ZR-75-30 cells were performed at Crown BioScience.
# [10] = Solubility assay; type: physicochemical; settings: buffer, pH 7.4, aqueous buffer; read-out: Aq. Sol.
# Method: Solubility was determined by Pharmaron, Inc. and each compound was assessed in duplicate (n = 2) by adding 15 μL of compound stock solution (10 mM in DMSO) into a 96-well plate along with 485 μL of buffer followed by shaking at 25 °C, 1100 rpm for 2 h. Wells were filtered, and samples (5 μL) were taken followed by dilution with an equal volume of DMSO (5 μL) and 490 μL of aqueous solution. Samples were analyzed by LC-MS/MS.
# [11] = Metabolic stability in liver microsomes; type: in vitro ADME, Sprague-Dawley rat; settings: for Remaining Percentage: rat LM
# Method: (§8) Microsome stability was assessed in duplicate (n = 2) in the presence and absence of nicotinamide adenine dinucleotide phosphate (NADPH) with liver microsomes (0.5 mg/mL) from human (BD Gentest) and Sprague-Dawley rats (BD Gentest). Compounds were incubated in liver microsomes at 1 μM and samples (30 μL) were taken at 0.5, 15, 30, 45, and 60 min time points for analysis by LC-MS/MS. Hepatocyte stability was assessed in duplicate (n = 2) at a working cell density of 0.5 × 10^6 cells/mL with hepatocytes from human (BiolVT), Sprague-Dawley rat (BiolVT), cynomolgus monkey (RILD) or beagle dog (BiolVT). […] The in vitro half-life and intrinsic clearances were determined as previously described.[76]
# (§9) In vitro half-life (in vitro t1/2) was determined from the slope value in [drawing 1] where k was determined by linear regression of the natural logarithm of the remaining percentage of the parent drug vs the incubation time curve.
# [12] = Metabolic stability in liver microsomes; type: in vitro ADME, human; settings: for Remaining Percentage: human LM
# Method: as §8, §9
# [13] = target: T3, EGFRwt; assay: KINOMEScan KdELECT Kd determination; type: binding; settings: wt; read-out: EGFR Kd
# Method: as §3
# [14] = Caco-2 permeability; type: in vitro ADME; settings: human; for recovery at 2 h, 5 μM: Caco-2, Caco-2
# Method: as §4, §5
# [15] = tested on: Caco-2 cells; assay: Caco-2 permeability; type: in vitro ADME; settings: Caco-2
# Method: as §4, §5
# [16] = Lipophilicity, shake-flask; type: physicochemical; settings: 1-octanol/PBS; 1-octanol and PBS (pH 7.4); read-out: logD7.4
# Method: Compound lipophilicity was determined by Pharmaron, Inc. using the shake-flask method with 1-octanol and PBS (pH 7.4). Each compound was assessed in duplicate (n = 2) at 1 μM in a 96-well plate shaken at 25 °C and 2000 rpm for 2 h. Samples were analyzed by liquid chromatography and tandem mass spectrometry (LC-MS/MS).
# [17] = Plasma stability; type: in vitro ADME, human; settings: human plasma; for t1/2: ∞ = no degradation
# Method: as §2
# [18] = target: T2, EGFRL858R; assay: KINOMEScan KdELECT Kd determination; type: binding; set-up: purchased Eurofins DiscoverX (contract assay)
# Method: as §3
# [19] = tested on: NCI-H3255 (EGFR mutation = L858R); assay: CellTiter-Glo cell viability assay; type: cell-based, human; settings: Homo sapiens, NCI-H3255; 72 h, unadjusted for FBS
# Method: as §6, §7
# [20] = set-up: method as in PMID 33028591; settings: single oral dose of 10 mg/kg in Han Wistar rats ref 18; cited from earlier work
# [21] = tested on: P-gp and BCRP; set-up: method as in ref 17−20; settings: ref 17−20; cited from earlier work
# [22] = Metabolic stability in hepatocytes; type: in vitro ADME, Sprague-Dawley rat; settings: rat hepatocytes
# Method: as §8, §9
# [23] = Brain tissue binding by equilibrium dialysis; type: in vitro ADME; settings: rat
# Method: as §1
# [24] = Plasma protein binding by equilibrium dialysis; type: in vitro ADME, mouse
# Method: as §1
# [25] = Metabolic stability in hepatocytes; type: in vitro ADME, human; settings: for Remaining Percentages: human hepatocytes
# Method: as §8, §9
# [26] = cited from earlier work
# [27] = human, human plasma, read-out: fu,plasma% / %Unbound (converted)
# [28] = plasma, human, 5 μM, read-out: fu,plasma% / %Unbound (converted)
# [29] = Sprague-Dawley, rat, rat plasma
# T2 sequence (P00533 25-1210 L858R): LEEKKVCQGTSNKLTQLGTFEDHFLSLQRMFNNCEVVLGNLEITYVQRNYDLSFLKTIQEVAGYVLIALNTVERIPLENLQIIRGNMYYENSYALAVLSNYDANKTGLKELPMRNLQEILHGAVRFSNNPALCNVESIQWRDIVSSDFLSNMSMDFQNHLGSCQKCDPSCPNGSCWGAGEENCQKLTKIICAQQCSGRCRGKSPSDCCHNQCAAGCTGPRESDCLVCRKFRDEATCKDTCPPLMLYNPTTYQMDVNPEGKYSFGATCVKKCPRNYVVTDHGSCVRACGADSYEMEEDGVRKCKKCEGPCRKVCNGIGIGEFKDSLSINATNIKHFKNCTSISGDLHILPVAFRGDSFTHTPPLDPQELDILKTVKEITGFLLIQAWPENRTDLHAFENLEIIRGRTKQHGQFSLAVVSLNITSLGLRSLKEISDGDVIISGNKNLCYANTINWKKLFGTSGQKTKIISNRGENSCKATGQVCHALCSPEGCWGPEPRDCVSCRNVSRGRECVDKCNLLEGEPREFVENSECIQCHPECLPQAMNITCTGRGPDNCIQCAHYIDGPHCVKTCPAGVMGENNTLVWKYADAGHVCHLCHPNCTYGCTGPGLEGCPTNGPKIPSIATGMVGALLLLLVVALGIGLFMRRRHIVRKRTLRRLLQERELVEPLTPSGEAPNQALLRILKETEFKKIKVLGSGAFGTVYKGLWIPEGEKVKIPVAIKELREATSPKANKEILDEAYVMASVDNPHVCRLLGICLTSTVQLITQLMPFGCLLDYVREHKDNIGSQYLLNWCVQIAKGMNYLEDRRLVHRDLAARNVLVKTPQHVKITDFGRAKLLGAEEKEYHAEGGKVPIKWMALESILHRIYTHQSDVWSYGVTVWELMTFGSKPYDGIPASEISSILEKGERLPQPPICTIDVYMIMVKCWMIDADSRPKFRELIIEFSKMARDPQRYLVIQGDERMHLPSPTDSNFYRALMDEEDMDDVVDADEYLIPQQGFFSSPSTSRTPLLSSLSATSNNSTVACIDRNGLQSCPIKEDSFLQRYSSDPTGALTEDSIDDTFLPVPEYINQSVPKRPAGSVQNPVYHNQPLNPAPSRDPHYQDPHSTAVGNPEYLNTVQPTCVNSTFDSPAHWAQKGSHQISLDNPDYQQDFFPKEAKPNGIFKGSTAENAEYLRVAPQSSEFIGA
# T3 sequence (P00533 25-1210): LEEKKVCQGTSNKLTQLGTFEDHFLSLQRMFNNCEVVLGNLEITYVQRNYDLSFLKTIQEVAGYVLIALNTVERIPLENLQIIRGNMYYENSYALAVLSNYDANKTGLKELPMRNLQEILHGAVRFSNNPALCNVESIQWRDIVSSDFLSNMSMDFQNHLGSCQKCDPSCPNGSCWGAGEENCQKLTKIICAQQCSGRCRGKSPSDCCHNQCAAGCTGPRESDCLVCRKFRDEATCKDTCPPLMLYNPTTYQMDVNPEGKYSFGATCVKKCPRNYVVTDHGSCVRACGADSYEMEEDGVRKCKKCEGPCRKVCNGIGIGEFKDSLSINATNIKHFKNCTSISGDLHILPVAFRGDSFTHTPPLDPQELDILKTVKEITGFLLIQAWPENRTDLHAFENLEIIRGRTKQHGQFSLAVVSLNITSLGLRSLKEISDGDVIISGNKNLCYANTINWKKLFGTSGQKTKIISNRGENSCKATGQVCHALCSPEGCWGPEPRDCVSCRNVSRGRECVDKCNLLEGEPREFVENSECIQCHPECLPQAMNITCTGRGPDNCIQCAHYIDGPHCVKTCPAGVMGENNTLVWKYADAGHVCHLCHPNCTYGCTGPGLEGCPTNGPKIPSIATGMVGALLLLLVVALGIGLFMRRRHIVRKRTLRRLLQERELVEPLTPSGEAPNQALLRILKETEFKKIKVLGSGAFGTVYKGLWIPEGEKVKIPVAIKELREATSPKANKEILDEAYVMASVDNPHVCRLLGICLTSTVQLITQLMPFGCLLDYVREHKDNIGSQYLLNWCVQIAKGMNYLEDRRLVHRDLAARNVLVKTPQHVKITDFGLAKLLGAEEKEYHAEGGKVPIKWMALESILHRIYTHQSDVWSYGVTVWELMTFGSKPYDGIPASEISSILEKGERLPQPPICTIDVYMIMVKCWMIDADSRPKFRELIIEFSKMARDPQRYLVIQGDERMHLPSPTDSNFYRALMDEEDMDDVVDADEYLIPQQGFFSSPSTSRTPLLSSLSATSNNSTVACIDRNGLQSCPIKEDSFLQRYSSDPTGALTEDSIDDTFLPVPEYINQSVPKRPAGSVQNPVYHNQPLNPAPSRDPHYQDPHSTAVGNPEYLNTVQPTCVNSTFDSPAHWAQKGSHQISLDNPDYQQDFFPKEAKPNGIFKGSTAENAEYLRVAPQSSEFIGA
# T1 sequence (P00533 with tags, fused parts or gaps DEL746-750): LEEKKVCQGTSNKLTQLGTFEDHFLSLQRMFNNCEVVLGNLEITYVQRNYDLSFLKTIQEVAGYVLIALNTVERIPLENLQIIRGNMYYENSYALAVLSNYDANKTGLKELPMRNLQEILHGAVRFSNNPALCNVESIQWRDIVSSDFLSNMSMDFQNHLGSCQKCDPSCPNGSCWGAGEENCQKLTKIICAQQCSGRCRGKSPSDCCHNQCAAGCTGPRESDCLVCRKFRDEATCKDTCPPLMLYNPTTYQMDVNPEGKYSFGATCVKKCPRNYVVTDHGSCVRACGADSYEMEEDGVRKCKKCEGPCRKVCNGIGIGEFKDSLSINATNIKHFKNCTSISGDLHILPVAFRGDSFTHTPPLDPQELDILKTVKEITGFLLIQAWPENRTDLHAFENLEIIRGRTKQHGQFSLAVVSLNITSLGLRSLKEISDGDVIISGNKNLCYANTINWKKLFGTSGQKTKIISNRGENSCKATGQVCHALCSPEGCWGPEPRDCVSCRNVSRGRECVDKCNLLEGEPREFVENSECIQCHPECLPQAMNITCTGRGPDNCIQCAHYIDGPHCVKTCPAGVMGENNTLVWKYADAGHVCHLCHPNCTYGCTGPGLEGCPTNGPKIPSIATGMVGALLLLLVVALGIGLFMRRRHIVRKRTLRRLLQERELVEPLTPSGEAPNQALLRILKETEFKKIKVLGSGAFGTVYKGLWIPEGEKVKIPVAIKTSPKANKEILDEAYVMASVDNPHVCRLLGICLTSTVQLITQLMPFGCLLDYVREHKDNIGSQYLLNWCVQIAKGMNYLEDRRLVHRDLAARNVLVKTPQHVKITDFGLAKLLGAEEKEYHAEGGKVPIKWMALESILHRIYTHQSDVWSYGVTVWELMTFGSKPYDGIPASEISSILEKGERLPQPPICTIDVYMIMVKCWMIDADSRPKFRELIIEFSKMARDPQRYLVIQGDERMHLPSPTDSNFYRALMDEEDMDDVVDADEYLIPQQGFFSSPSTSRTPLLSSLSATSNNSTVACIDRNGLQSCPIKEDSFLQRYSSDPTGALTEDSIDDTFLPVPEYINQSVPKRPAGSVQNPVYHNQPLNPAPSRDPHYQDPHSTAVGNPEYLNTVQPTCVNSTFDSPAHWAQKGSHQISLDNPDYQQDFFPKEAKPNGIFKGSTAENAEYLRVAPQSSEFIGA
compound,measurement,setting,value
"COc1cc2ncnc(Nc3ccc(F)c(Cl)c3)c2cc1OCCON1CCOCC1 [Compound 6, N-(3-Chloro-4-fluorophenyl)-7-methoxy-6-(2-(morpholinooxy)ethoxy)quinazolin-4-amine]",Kd,[1],0.3 nM
same,increase in permeability compared to 1,[2],roughly 4 fold
same,"recovery at 2 h, 1 μM",[3]; read-out: Recovery% (AP-BL),51.6%
same,"recovery at 2 h, 1 μM",[3]; read-out: Recovery% (BL-AP),66.4%
same,"efflux ratio at 2 h, 1 µM",[4],2
same,"efflux ratio at 2 h, 1 μM",[4],1.99
same,"Papp A→B at 2 h, 1 µM","[4]; 1 μM, 2 h",4.2 ×10⁻⁶ cm/s
same,"Papp A→B at 2 h, 1 μM","[4]; 1 μM, 2 h",4.19 ×10⁻⁶ cm/s
same,"Papp B→A at 2 h, 1 µM","[4]; 1 μM, 2 h",8.3 ×10⁻⁶ cm/s
same,"Papp B→A at 2 h, 1 μM","[4]; 1 μM, 2 h",8.26 ×10⁻⁶ cm/s
same,IC50,[5],< 1 nM
same,"recovery at 6 h, 5 μM","[6]; human, human plasma",101%
same,"remaining at 6 h, 5 μM","[6]; human, human plasma",99.5%
same,"fraction unbound at 6 h, 5 μM",[6]; [27],0.0512
same,"fraction unbound at 6 h, 5 μM",[6]; [28],0.0512
same,Remaining Percentages,[7]; 15 min,100.23%
same,Remaining Percentages,[7]; 30 min,99.35%
same,Remaining Percentages,[7]; 60 min,99.28%
same,Remaining Percentages,[7]; 120 min,104.21%
same,t1/2,[7],∞
same,IC50,[8],5 nM
same,IC50,[9],4.2 nM
same,solubility kinetic at 2 h,[10],1 µM
same,"half-life at 1 h, 1 µM","[11]; Sprague-Dawley, rat, liver microsomes, read-out: LM t1/2",19.5 min
same,"microsomal CLint at 1 h, 1 µM","[11]; Sprague-Dawley, rat, liver microsomes, read-out: LMClint",71 µL/min/mg
same,Remaining Percentage,"[11]; +Cofactors, 15 min",50.62%
same,Remaining Percentage,"[11]; +Cofactors, 30 min",25.81%
same,Remaining Percentage,"[11]; +Cofactors, 45 min",17.98%
same,Remaining Percentage,"[11]; +Cofactors, 60 min",11.88%
same,Remaining Percentage,"[11]; -Cofactors, 60 min",109.68%
same,Remaining Percentage,"[12]; +Cofactors, 15 min",49.30%
same,Remaining Percentage,"[12]; +Cofactors, 30 min",28.74%
same,Remaining Percentage,"[12]; +Cofactors, 45 min",20.85%
same,Remaining Percentage,"[12]; +Cofactors, 60 min",14.00%
same,Remaining Percentage,"[12]; -Cofactors, 60 min",89.19%
same,"half-life at 1 h, 1 µM","[12]; human, liver microsomes, read-out: LM t1/2",21.6 min
same,"microsomal CLint at 1 h, 1 µM","[12]; human, liver microsomes, read-out: LMClint",64 µL/min/mg
same,Kd,[13],0.6 nM
same,"efflux ratio at 2 h, 5 µM",[14]; Caco-2,1.9
same,"efflux ratio at 2 h, 5 μM",[14]; Caco-2,1.91
same,"recovery at 2 h, 5 μM",[14]; read-out: Recovery% (AP-BL),53.8%
same,"recovery at 2 h, 5 μM",[14]; read-out: Recovery% (BL-AP),60.3%
same,"Papp A→B at 2 h, 5 µM","[14]; Caco-2, 5 μM, 2 h",5.6 ×10⁻⁶ cm/s
same,"Papp A→B at 2 h, 5 μM","[14]; Caco-2, 5 μM, 2 h",5.59 ×10⁻⁶ cm/s
same,"Papp B→A at 2 h, 5 µM","[14]; Caco-2, 5 μM, 2 h",10.7 ×10⁻⁶ cm/s
same,"Papp B→A at 2 h, 5 μM","[14]; Caco-2, 5 μM, 2 h",10.7 ×10⁻⁶ cm/s
same,enhancement in permeability compared with 1,[15],14 fold
same,"logD at 2 h, 1 µM",[16],3.9
same,Remaining Percentages,[17]; 15 min,98.26%
same,Remaining Percentages,[17]; 30 min,102.87%
same,Remaining Percentages,[17]; 60 min,101.74%
same,Remaining Percentages,[17]; 120 min,97.90%
same,t1/2,[17],∞
same,Kd,[18]; L858R,0.8 nM
same,binding and biochemical inhibition of activating mutant bearing EGFR,"[18]; in words, Tables S1 and S3",single-digit nanomolar
same,IC50,[19],88 nM
"COc1cc2ncnc(Nc3ccc(F)c(Cl)c3)c2cc1OCCCN1CCOCC1 [Gefitinib (1), Gefitinib, reference compound]","Kp,uu (AUC0−16h)",[20],0.0092
same,efflux status against common efflux transporters,[21],P-gp and BCRP Substrate
same,Remaining Percentages,[22]; 15 min,66.86%
same,Remaining Percentages,[22]; 30 min,59.92%
same,Remaining Percentages,[22]; 60 min,39.44%
same,Remaining Percentages,[22]; 90 min,21.69%
same,Remaining Percentages,[22]; 120 min,13.94%
same,"fraction unbound at 6 h, 5 μM","[6]; Sprague-Dawley, rat, plasma, 5 μM, read-out: fu,plasma% / %Unbound",0.0249
same,"recovery at 6 h, 5 μM",[6]; [29],105%
same,"remaining at 6 h, 5 μM",[6]; [29],105%
same,"fraction unbound at 6 h, 5 μM","[6]; Sprague-Dawley, rat, rat plasma, read-out: %Bound (converted)",0.0249
same,"recovery at 6 h, 5 μM","[6]; human, human plasma",106%
same,"remaining at 6 h, 5 μM","[6]; human, human plasma",98.8%
same,"fraction unbound at 6 h, 5 μM",[6]; [27],0.0766
same,"fraction unbound at 6 h, 5 μM",[6]; [28],0.0766
same,Remaining Percentages,[7]; 15 min,100.11%
same,Remaining Percentages,[7]; 30 min,98.28%
same,Remaining Percentages,[7]; 60 min,95.04%
same,Remaining Percentages,[7]; 120 min,93.66%
same,t1/2,[7],∞
same,"recovery at 6 h, 5 μM","[23]; Sprague-Dawley (SD), rat brain homogenate",99.7%
same,"fraction unbound at 6 h, 5 μM","[23]; Sprague-Dawley, brain homogenate, read-out: fu,brain% / %Unboundbrain",0.006
same,"remaining at 6 h, 5 μM","[23]; Sprague-Dawley, rat brain homogenate",105%
same,"fraction unbound at 6 h, 5 μM","[23]; Sprague-Dawley, rat brain homogenate, read-out: %Boundbrain (converted)",0.006
same,solubility kinetic at 2 h,[10],4 µM
same,Remaining Percentage,"[11]; +Cofactors, 15 min",63.13%
same,Remaining Percentage,"[11]; +Cofactors, 30 min",37.48%
same,Remaining Percentage,"[11]; +Cofactors, 45 min",25.25%
same,Remaining Percentage,"[11]; +Cofactors, 60 min",19.26%
same,Remaining Percentage,"[11]; -Cofactors, 60 min",115.38%
same,Remaining Percentage,"[12]; +Cofactors, 15 min",39.75%
same,Remaining Percentage,"[12]; +Cofactors, 30 min",19.60%
same,Remaining Percentage,"[12]; +Cofactors, 45 min",12.23%
same,Remaining Percentage,"[12]; +Cofactors, 60 min",8.14%
same,Remaining Percentage,"[12]; -Cofactors, 60 min",100.00%
same,"recovery at 6 h, 5 μM","[24]; CD-1, mouse, mouse plasma",99.4%
same,"remaining at 6 h, 5 μM","[24]; CD-1, mouse, mouse plasma",98%
same,"fraction unbound at 6 h, 5 μM","[24]; CD-1, mouse, mouse plasma, read-out: %Bound (converted)",0.0781
same,"fraction unbound at 6 h, 5 μM","[24]; CD-1, plasma, mouse, 5 μM, read-out: fu,plasma% / %Unbound",0.0781
same,Remaining Percentages,[25]; 15 min,97.55%
same,Remaining Percentages,[25]; 30 min,94.76%
same,Remaining Percentages,[25]; 60 min,73.38%
same,Remaining Percentages,[25]; 90 min,50.47%
same,Remaining Percentages,[25]; 120 min,39.53%
same,"half-life at 2 h, 1 µM","[25]; human, hepatocytes, read-out: HEP t1/2",83.5 min
same,"logD at 2 h, 1 µM",[16],3.7
same,Remaining Percentages,[17]; 15 min,103.40%
same,Remaining Percentages,[17]; 30 min,103.92%
same,Remaining Percentages,[17]; 60 min,101.33%
same,Remaining Percentages,[17]; 120 min,104.45%
same,t1/2,[17],∞
hydroxylamine,pKa,[26],5.9
